Test results as given in article PMC4567403 (Bioorganic & medicinal chemistry letters, 2015).

How the values were obtained:
P450 3A4 = P450 3A4 (Homo sapiens, UniProt P08684); test: P450 inhibition 3A4; assay type: in vitro ADME; settings: 3A4, at 30 μM
P450 2C9 = P450 2C9 (Homo sapiens, UniProt P11712); test: P450 inhibition 2C9; assay type: in vitro ADME; settings: 2C9, at 30 μM
[1] = Microsomal intrinsic clearance, mouse; assay type: in vitro ADME; settings: in words
SW620 cell lines = settings: cited from earlier work
P450 2D6 = P450 2D6 (Homo sapiens, UniProt P10635); test: P450 inhibition 2D6; assay type: in vitro ADME; settings: 2D6, at 30 μM
Sequence of P450 2D6 (P10635 whole entry): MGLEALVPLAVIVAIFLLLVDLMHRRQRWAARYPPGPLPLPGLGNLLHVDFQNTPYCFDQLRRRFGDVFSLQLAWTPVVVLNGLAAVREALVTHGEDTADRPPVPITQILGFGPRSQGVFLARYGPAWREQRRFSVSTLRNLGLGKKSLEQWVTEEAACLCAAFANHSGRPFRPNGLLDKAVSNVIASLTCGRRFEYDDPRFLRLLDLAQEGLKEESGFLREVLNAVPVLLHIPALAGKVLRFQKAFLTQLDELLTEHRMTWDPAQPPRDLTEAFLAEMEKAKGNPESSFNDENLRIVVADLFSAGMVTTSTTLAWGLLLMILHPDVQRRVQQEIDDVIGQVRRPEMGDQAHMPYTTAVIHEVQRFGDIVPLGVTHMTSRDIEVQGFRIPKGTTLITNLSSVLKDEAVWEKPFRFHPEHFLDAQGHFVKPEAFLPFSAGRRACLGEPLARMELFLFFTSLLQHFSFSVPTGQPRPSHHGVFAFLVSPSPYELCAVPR

P450 1A2 = target: T1, P450 1A2 (Homo sapiens, UniProt P05177); test: P450 inhibition 1A2; assay type: in vitro ADME; settings: 1A2, at 30 μM
T1 sequence (P05177 1-516): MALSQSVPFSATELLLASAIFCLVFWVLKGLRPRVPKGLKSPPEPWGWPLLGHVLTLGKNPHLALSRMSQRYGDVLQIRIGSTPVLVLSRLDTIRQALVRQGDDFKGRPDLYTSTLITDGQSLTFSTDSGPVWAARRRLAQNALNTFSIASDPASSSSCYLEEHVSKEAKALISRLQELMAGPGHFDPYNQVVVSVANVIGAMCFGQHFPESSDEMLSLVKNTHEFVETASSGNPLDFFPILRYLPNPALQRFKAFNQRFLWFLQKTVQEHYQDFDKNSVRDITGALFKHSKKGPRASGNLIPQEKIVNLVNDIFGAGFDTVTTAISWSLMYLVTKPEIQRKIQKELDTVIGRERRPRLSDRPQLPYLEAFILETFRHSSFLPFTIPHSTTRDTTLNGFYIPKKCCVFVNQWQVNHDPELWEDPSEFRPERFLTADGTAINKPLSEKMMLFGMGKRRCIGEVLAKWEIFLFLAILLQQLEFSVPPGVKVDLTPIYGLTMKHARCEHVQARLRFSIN

Pharmacokinetics in rat = assay type: in vivo, male Sprauge- Dawley rats
[2] = Microsomal intrinsic clearance, human; assay type: in vitro ADME; settings: human microsomal studies, in words
[3] = test system: e-cadherin expression in SW620 cells; test: In-Cell-Western; assay type: cell-based; settings: 10 μM compound, average of two assessments

Sequence of P450 3A4 (P08684 whole entry): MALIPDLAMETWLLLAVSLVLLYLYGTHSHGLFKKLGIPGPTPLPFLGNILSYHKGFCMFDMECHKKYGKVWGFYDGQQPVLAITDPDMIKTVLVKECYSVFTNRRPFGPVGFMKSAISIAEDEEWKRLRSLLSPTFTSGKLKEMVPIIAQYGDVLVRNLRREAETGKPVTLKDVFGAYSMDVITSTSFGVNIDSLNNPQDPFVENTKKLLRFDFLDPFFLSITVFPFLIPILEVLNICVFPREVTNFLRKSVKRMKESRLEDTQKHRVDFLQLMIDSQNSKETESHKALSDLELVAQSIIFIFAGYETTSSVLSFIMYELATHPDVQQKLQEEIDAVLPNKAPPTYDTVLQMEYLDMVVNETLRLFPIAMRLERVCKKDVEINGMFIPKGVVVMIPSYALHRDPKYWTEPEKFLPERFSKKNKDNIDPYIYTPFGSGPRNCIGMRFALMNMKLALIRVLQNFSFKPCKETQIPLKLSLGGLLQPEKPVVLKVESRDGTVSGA
Sequence of P450 2C9 (P11712 whole entry): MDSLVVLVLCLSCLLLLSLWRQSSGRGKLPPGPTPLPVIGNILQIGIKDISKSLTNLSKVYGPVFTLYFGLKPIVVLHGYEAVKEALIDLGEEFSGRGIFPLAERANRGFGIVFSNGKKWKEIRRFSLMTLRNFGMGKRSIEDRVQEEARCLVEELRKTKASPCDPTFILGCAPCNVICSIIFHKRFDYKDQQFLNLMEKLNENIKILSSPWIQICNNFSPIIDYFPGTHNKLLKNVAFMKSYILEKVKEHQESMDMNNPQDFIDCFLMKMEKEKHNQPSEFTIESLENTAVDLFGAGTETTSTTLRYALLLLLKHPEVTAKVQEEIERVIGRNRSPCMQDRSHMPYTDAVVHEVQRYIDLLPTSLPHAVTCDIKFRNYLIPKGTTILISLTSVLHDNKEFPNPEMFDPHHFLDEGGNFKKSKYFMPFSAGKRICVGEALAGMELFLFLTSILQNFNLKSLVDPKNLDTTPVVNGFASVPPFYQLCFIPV

For `O=C(NCCCCNC(=O)c1cccnc1O)c1cc(-c2ccccc2)on1` [11r], the “inhibition of P450 isozyme” value (P450 3A4) was “No inhibition”, the “inhibition of P450 isozyme” value (P450 2C9) was “No inhibition” and the mouse clearance [1] was “well in excess of hepatic blood flow”. For the same compound, the EMT phenotype (SW620 cell lines) was “capable of reversing the EMT phenotype”, the invasive potential (SW620 cell lines) was “reducing the invasive potential” and the “inhibition of P450 isozyme” value (P450 2D6) was “No inhibition”. For the same compound, the “inhibition of P450 isozyme” value (P450 1A2) was “No inhibition”, the exposure (Pharmacokinetics in rat; IV and IP dosing) was “suitable” and the half life (Pharmacokinetics in rat; IV dose in rat, 1 mg/kg) was “long”. For the same compound, the intrinsic clearance [2] was “neglible”.

For `O=C(NCCCn1ccnc1)c1noc2ccccc12` [compound 3], the “Fold change of e-cadherin expression” value [3] was “failed to demonstrate significant restoration”.

With `CC(CNC(=O)c1cc(-c2cccs2)on1)c1ccncc1` (stereo not drawn) [compound 7] the “Fold change of e-cadherin expression” value [3] was “failed to demonstrate significant restoration”.

With `Cn1nc(C(=O)NCCCCc2ccncc2)cc1-c1ccccc1` [compound 5] the “Fold change of e-cadherin expression” value [3] was “failed to demonstrate significant restoration”.

With `O=C(NCCCN1CCOCC1)c1n[nH]c2ccccc12` [compound 4] the “Fold change of e-cadherin expression” value [3] was “failed to demonstrate significant restoration”.

For `Cc1c(C(=O)NCCCCc2ccncc2)nn(C)c1-c1ccccc1` [compound 6], the “Fold change of e-cadherin expression” value [3] was “failed to demonstrate significant restoration”.
